{"source": "patent US20230233617A1", "about": "“METHODS FOR DIFFERENTIATING STEM CELLS INTO DOPAMINERGIC PROGENITOR CELLS” (JZ CELL TECHNOLOGIES AB, priority 2020, published 2023)", "key": {"CYP26": {"system": "CYP26", "settings": "cited from earlier work"}, "hPSC-derived NSCs": {"system": "hPSC-derived NSCs", "test": "Ventral regional identity of hPSC-derived NSCs at 9 DDC in dSMADi+SAG conditions (NKX2.1, LMX1A, PHOX2B, NKX2.2)", "assay_type": "cell-based, human", "settings": "9 DDC"}, "[1]": {"system": "hPSC-derived vMB progenitors", "test": "Neurogenesis and mDA neuron yield in differentiating hPSC cultures (HuCD, TuJ1, TH, GABA immunocytochemistry, electrophysiology)", "assay_type": "cell-based, human", "excerpt": "A unique feature of mDA neurons is that they originate from initially non-neuronal floor plate (FP) cells at the ventral midline of the MB, and progenitors must acquire neuronal potential prior to differentiation into neurons^30,44. Few markers distinguish between these states, but downregulation of SHH and upregulation pro-neural bHLH proteins over time correlate with this transition^44. […] In RA^2D+SAG cultures at 21 DDC, ˜30% of DAPI^+ cells accounted for HuCD^+ neurons (FIG. 4d) and many of these had initiated expression of TH (FIG. 4c). When we instead used CHIR99021+SAG to specify LMX1A^+/NKX2.1^− vMB progenitors (FIG. 3b), cells initiated neurogenesis at around 17 DDC (FIG. 4c, d) which is consistent with previous studies^9,13. At 21 DDC, HuCD^+ neurons constituted ˜10% of total cells and few neurons expressed TH (FIG. 4c, d).\nTH^+ neurons acquired a progressively more advanced neuronal morphology with a progressive outgrowth of TH^+ axonal processes in RA^2D+SAG cultures between 30-45 DDC (FIG. 4e, g, h; FIG. 8f (Supplementary FIG. 2f)). TH^+ neurons expressed mDA neuron markers LMX1A, LMX1B, FOXA2, NURR1, and OTX2 at 30-35 DDC (FIG. 4e). […] TH^+ neurons also expressed the mature neuronal marker SYNAPTOPHYSIN and the monoaminergic marker VMAT2 (FIG. 40. A subset of cells expressed GIRK2 or CALBINDIN indicating the presence of both A9- and A10-like subtypes of mDA neurons^45 (FIG. 4f). At 35 DDC, ˜80% of neurons expressed TH^+ which corresponded to ˜65% of total DAPI^+ cells (FIG. 4i, j). ˜10% of neurons expressed GABA (FIG. 4i, j), and some of these co-expressed TH (FIG. 10c (Supplementary FIG. 4c)). Only rare neurons expressing 5-HT or the MN marker PERIPHERIN were detected (FIG. 4i, j). High performance liquid chromatography (HPLC) analyses at 42 DDC established that neurons produced and released dopamine (FIG. 4k, I) but not serotonin (5-HT) or noradrenaline (NA) (FIG. 4k). […] Very few cells expressed Ki67 or phospho-histone H3 at 35-40 DDC indicating low mitotic activity after long-term culturing of cells (FIG. 4i). Functional maturation of mDA neurons in vitro can be monitored by determining the time when hPSC-derived mDA neurons acquire spontaneous action potentials, evoked action potentials and voltage-dependent Na^+ and K^+ currents, and these traits were previously reported to be attained after ˜60 days of culture of FACS-enriched mDA neurons (25+36 days: before/after sorting) using current state-of-the-art protocols^7. […] Neurons showing both spontaneous (FIG. 4m) and evoked action potentials (FIG. 4n) could be recorded at 40 DDC.\n80-90% confluent PSCs cultures were rinsed twice with PBS, treated with EDTA (0.5 mM in PBS) for 5-7 min, and resuspended into single cell suspension in PBS. Cells were spin down at 400 g and resuspended in N2B27 medium (DMEM/F12: Neurobasal (1:1), 0.5×N2 and 0.5×B27 (plus vitamin A) supplements, 1×nonessential amino acids, 1% GlutaMAX, 55 μM β-mercaptoethanol-all from Thermo Fisher Scientific) containing 5 μM SB431542 (Miltenyi Biotech) and 2.5 μM DMH1 (Santa Cruz Biotech) (dual SMAD inhibition), and 10 μM ROCK inhibitor (for the first 48 hours after seeding). Cells were seeded on VTN (2 μg/cm^2) and Fibronectin (FN) (2 μg/cm^2) (Sigma) coated surface at a density of 60,000-80,000 cells/cm^2 for RA- and RA-analogues based experiments, and 20,000 cells/cm^2 for CHIR99021 experiments. SAG1.3 (Santa Cruz Biotechnology), CHIR99021 (Miltenyi Biotech), all-trans RA, 9-cis RA, 13-cis RA, Tazarotenic acid, R115866 (all Sigma), EC23 (Amsbio) were used at concentrations and time points described in the result section. For mDA neuron differentiation (see schematic drawing FIG. 4) neural progenitors were mechanically dissociated at 9 DDC with Stem Cell Passaging Tool (Thermo Fisher Scientific) and seeded at 1:3 ratio in N2B27 medium containing 10 μM ROCK inhibitor (for first 48 hours after dissociation) on VTN and FN coated surfaces. […]"}}}
{"compound": "CC1=C(/C=C/C(C)=C/C=C/C(C)=C/C(=O)O)C(C)(C)CCC1", "note": "[RA, all-trans retinoic acid]", "values": [{"measurement": "susceptibility to CYP26-mediated oxidation", "setting": "CYP26", "value": "substrates for CYP26-mediated oxidation"}, {"measurement": "ventral identity of NSCs", "setting": "hPSC-derived NSCs; RA^1D+SAG", "value": "expressed the FB-specific markers FOXG1, SIX3, SIX6, and LHX2"}, {"measurement": "identity of NSCs", "setting": "hPSC-derived NSCs; RA^2D+SAG, 100 nM or 800 nM RA", "value": "LMX1A^+/NKX2.1^− NSCs were generated but at lower numbers"}, {"measurement": "RA concentration at which the vast majority of NSCs expressed LMX1A+/NKX2.1− vMB-identity", "setting": "hPSC-derived NSCs; RA^2D+SAG", "value": "200 to 400", "unit": "nM"}, {"measurement": "ventral identity of NSCs", "setting": "hPSC-derived NSCs; RA^2D+SAG", "value": "LMX1A^+/LMX1B^+/FOXA2^+/OTX2^+ identity characteristic of vMB mDA neuron progenitors"}, {"measurement": "ventral identity of NSCs", "setting": "hPSC-derived NSCs; RA^3D+SAG or RA^4D+SAG", "value": "expressed HOX genes and the ventral markers NKX2.2, PHOX2B, NKX6.1, and NKX6.2 typical of cranial motor neuron (MN) progenitors of the HB"}, {"measurement": "time at which the 48 hour RA-pulse must be initiated for effective induction of vMB NSC identity", "setting": "hPSC-derived NSCs; dSMADi+SAG", "value": "0-2 DDC"}, {"measurement": "share of cell population that are ventral midbrain dopaminergic progenitor cells (FOXA2, LMX1A, LMX1B, OTX2)", "setting": "[1]; 14 DDC, immunocytochemistry", "value": "about 80%"}, {"measurement": "HuCD+ neurons as share of total DAPI+ cells", "setting": "[1]; 21 DDC, with SAG", "value": "~30", "unit": "%"}, {"measurement": "TH+ cells of total DAPI+ cells", "setting": "[1]; RA^2D+SAG, 35 DDC", "value": "~65", "unit": "%"}, {"measurement": "neurons expressing GABA", "setting": "[1]; RA^2D+SAG, 35 DDC", "value": "~10", "unit": "%"}, {"measurement": "neurons expressing TH", "setting": "[1]; RA^2D+SAG, 35 DDC, of neurons", "value": "~80", "unit": "%"}, {"measurement": "culture time to mDA neurons exhibiting mature functional features", "setting": "[1]; RA^2D+SAG, spontaneous and evoked action potentials", "value": 40, "unit": "days"}, {"measurement": "time of initiation of neurogenesis (first neurons)", "setting": "[1]; with SAG", "value": 12, "unit": "DDC"}]}
